We go through 16 compounds from patent publication EP0036153A1, “1,1-Diphenyl-2-(1,2,4-triazol-1-yl)-ethan-1-oles as antimycotic agents” (BASF Aktiengesellschaft, priority 1980, dated 1981).

Converted amounts (≈) assume the structure as drawn. Structures can show the parent of a compound that is named as a salt. Where two headings read alike, the source gives them in different places. Some results are limits rather than exact numbers.

The nature of series [1]: Acute oral toxicity (LD50) in the mouse. The series is classed as in vivo. Particulars: for LD50: mouse, in vivo, po, Maus.
The subject of series [2] is Candida albicans (Robin) Berkhout No 20/M. Put plainly: Pseudomycelium and mycelium phase test with Candida albicans (minimal inhibitory concentration, 100 % inhibition). In kind it is cell-based. The following applies: microaerophilic, 2 days, 37°C; for MIC: Candida albicans, 48 h, read-out: MHKMyzelph. The text has this: Pseudomyzel- und Myzelphasentest mit Candida albicans: • Dieser Test berücksichtigt, daß C. albicans in vivo nicht nur Sproßzellen, sondern auch Pseudomyzel und echtes Myzel ausbilden kann (Dimorphie). In vitro wird die Ausbildung aller Wachstumsphasen dieses Keimes und der Einfluß von antimyzetisch wirksamen Substanzen in folgender Weise geprüft: Candida albicans (Robin) Berkhout No 20/M (Stamm der Mykothek, Nordmark-Werke GmbH) wird mit der Impföse einerseits auf die Oberfläche A des Nährmediums (Brain Heart Infusion, Difco) und andererseits bei B als Stichkultur angeimpft (Figur).
Im Bereich der Stichkultur wird zusätzlich ein Deckglas C aufgelegt (mikroaerophile Bedingungen). Die Petrischale D enthält im Nährmedium eine geometrisch abgestufte Verdünnungsreihe der jeweiligen Prüfsubstanz. Nach Inkubation dieser Testplatten (2 Tage, 37°C) sind in präparatefreien Kontrollplatten im aeroben Berzirk A ausschließlich Sproßzellen (Hefephase), im mikroaerophilen Bezirk B ausschließlich Pseudohyphen und echte Hyphen gewachsen.
Als minimale Hemmkonzentrationen wurden diejenigen Konzentrationsstufen des Prüfpräparates bezeichnet, bei denen eine 100 %ige Hemmung des jeweiligen Pilzwachstums zu beobachten war.
Diese Testanordnung ermöglicht es, zwischen der minimalen Hemmkonzentration der Hefephase (MHKHefephase) ) und der MHK der Pseudomyzelphase bzw. M^yzelphase (MHKMyzelDhase) für Candida albicans zu unterscheiden.
Während die MHK-Werte für die Hefephase bei über 128 µg/ml liegen, ergeben sich für die Mycelphase äußerst niedrige MHK-Werte, wie aus der Tabelle 1 hervorgeht.

The subject of series [3] is M. canis. Put plainly: Agar dilution test against dermatophytes. The series is classed as cell-based. Particulars: Microsporum canis, read-out: MHK. The text has this: (§1) Die antimikrobielle Wirksamkeit in vitro gegen Dermatophyt wurde im Agar-Dilutionstest (Lit.: P. Klein "Bakteriologische Grundlagen der chemotherapeutischen Laboratoriumspraxis") ermittelt. Das Ergebnis dieser Untersuchungen am Beispiel der Verbindung Nr. 3 zeigt Tabelle 2.
(In general: Agar dilution tests growth on a series of plates holding different concentrations.)

The subject of series [4] is M. audouinii. Put plainly: Agar dilution test against dermatophytes. The series is classed as cell-based. Particulars: Microsporum audouinii; M. audouinii No. 4; read-out: MHK.
Excerpt: as §1

Series [5] deals with T. mentagroph. Put plainly: Agar dilution test against dermatophytes. In kind it is cell-based.
Excerpt: as §1

Series [6] has as its system T. violaceum. The series can be described thus: Agar dilution test against dermatophytes. In kind it is cell-based. Particulars: Trichophyton violaceum; T. violaceum No. 10; read-out: MHK.
Excerpt: as §1

The subject of series [7] is T. schoenleinii. The series can be described thus: Agar dilution test against dermatophytes. In kind it is cell-based. Particulars: T. schoenleinii No. 9; read-out: MHK.
Excerpt: as §1

Series [8] has as its system E. floccosum. Put plainly: Agar dilution test against dermatophytes. The series is classed as cell-based. The following applies: Epidermophyton floccosum; E. floccosum No. 157; read-out: MHK.
Excerpt: as §1

The test system of series [9] is M. ferrugineum. Put plainly: Agar dilution test against dermatophytes. In kind it is cell-based. Particulars: M. ferrugineum No. 5; read-out: MHK.
Excerpt: as §1

For orientation: LD50 means the dose at which mortality reaches 50%. Low values mean greater toxicity, high ones lower toxicity.

Consider `OC(Cn1cncn1)(c1ccc(Cl)cc1)c1ccc(Cl)cc1` [Beispiel 1, 1,1-Bis-(4-chlorphenyl)-2-(1.2.4-triazol-1-yl)--äthan-1-ol], for which, in series [1], the LD50 was more than 1000 mg/kg. Also, the MIC in [2] is less than 0.125 mg/L.
As to `OC(Cn1cncn1)(c1ccc(Cl)cc1)c1ccc(Cl)cc1` [Beispiel 2, 1,1-Bis-(4-chlorphenyl)-2-(1.2.4-triazol-1-yl)--äthan-1-ol-hydrochlorid], the “LD50 (Maus) p.o.” value in series [1] is more than 1000 mg/kg. In addition, in series [2], the MHKMyzelph. is listed as <0,125 µg/ml.
With `OC(Cn1cncn1)(c1ccc(Cl)cc1)c1ccc(Cl)cc1Cl` (centres unmarked) [Beispiel 3, 1-(4-Chlorphenyl)-1-(2,4-dichlorphenyl)-2-(1,2,4-triazol-1-yl)-äthan-1-ol], the MIC was found to be 4 mg/L (≈ 10.9 µM) in [3] (M. canis No. 167); 2 mg/L (≈ 5.43 µM) in series [3] (M. canis No. 168); 8 mg/L (≈ 21.7 µM) in [3] (M. canis No. 169); 0.25 mg/L (≈ 0.678 µM) in [4]; 0.25 mg/L (≈ 0.678 µM) in [5] (T. mentagroph. No. 172, read-out: MHK); 2 mg/L (≈ 5.43 µM) in series [6]. Besides, the MIC is 0.25 mg/L (≈ 0.678 µM) in series [7], 16 mg/L (≈ 43.4 µM) in series [8], 0.5 mg/L (≈ 1.36 µM) in series [9] and less than 0.125 mg/L in series [2]. Also, the MHK in series [5] (T. mentagroph. No. 173) was 0,25 µg/ml. The “LD50 (Maus) p.o.” value in [1] was more than 4000 mg/kg.
As to `OC(Cn1cncn1)(c1ccc(Cl)cc1)c1ccc(Cl)cc1Cl` (centres unmarked) [Beispiel 4, 1-(4-Chlorphenyl)-1-(2,4-dichlorphenyl)-2-(1.2.4--triazol-1-yl)-äthan-1-ol-hydrochlorid], the “LD50 (Maus) p.o.” value in [1] is on record as more than 1000 mg/kg. Moreover, in [2], the MHKMyzelph. was <0,125 µg/ml.
The matching figures for `OC(Cn1cncn1)(c1ccc(Cl)cc1)c1ccc(Cl)cc1Cl` (centres unmarked) [Beispiel 5, 1-(4-Chlorphenyl)-1-(2,4-dichlorphenyl)-2-(1.2.4--triazol-1-yl)-äthan-1-ol-nitrat]: more than 1000 mg/kg and <0,125 µg/ml.
For the compound `OC(Cn1cncn1)(c1ccccc1)c1ccccc1Cl` (centres unmarked) [Beispiel 6, 1-Phenyl-1-(2-chlorphenyl)-2-(1.2.4-triazol-1-yl)--äthan-1-ol-hydrochlorid], the LD50 in series [1] was more than 1000 mg/kg. In addition, in series [2], the MIC is less than 0.125 mg/L.
For `OC(Cn1cncn1)(c1ccccc1)c1ccc(Cl)cc1` (centres unmarked) [Beispiel 7, 1-Phenyl-1-(4-chlorphenyl)-2-(1.2.4-triazol-1-yl)-äthan--1-ol-hydrochlorid], in [1], the “LD50 (Maus) p.o.” value is reported as more than 1000 mg/kg.
In [1], `OC(Cn1cncn1)(c1ccccc1)c1ccc(Cl)cc1` (centres unmarked) [Beispiel 8, 1-Phenyl-1-(4-chlorphenyl)-2-(1.2.4-triazol-1-yl)--äthan-1-ol-nitrat] came in with an LD50 of more than 1000 mg/kg. In addition, the MIC in [2] is less than 0.125 mg/L.
Taken in the same sequence, the figures for `OC(Cn1cncn1)(c1ccccc1)c1ccc(Cl)cc1Cl` (centres unmarked) [Beispiel 9, 1-Phenyl-1-(2,4-dichlorphenyl)-2-(1.2.4-triazol-1-yl)--äthan-1-ol] were more than 1000 mg/kg and less than 0.125 mg/L.
As for `OC(Cn1cncn1)(c1ccccc1)c1ccc(Cl)cc1Cl` (centres unmarked) [Beispiel 10, 1-Phenyl-1-(2,4-dichlorphenyl)-2-(1.2.4-triazol-1-yl)--äthan-1-ol-hydrochlorid], the “LD50 (Maus) p.o.” value in [1] is reported as more than 1000 mg/kg. The MHKMyzelph. in series [2] is reported as <0,125 µg/ml.
Consider `OC(Cn1cncn1)(c1ccccc1)c1ccc(Cl)cc1Cl` (centres unmarked) [Beispiel 11, 1-Phenyl-1-(2,4-dichlorphenyl)-2-(1.2.4-triazol-1-yl)--äthan-1-ol-nitrat], for which the “LD50 (Maus) p.o.” value in [1] is listed as more than 1000 mg/kg. Further, the MHKMyzelph. in [2] was <0,125 µg/ml.
`OC(Cn1cncn1)(c1ccc(Cl)cc1)c1ccccc1Cl` (centres unmarked) [Beispiel 12, 1-(2-Chlorphenyl)-1-(4-chlorphenyl)-2-(1.2.4-triazol--1-yl)-äthan-1-ol-hydrochlorid] displayed an LD50 in [1] of more than 1000 mg/kg. In series [2], the MIC turned out to be 1 mg/L.
In series [1], `OC(Cn1cncn1)(c1ccccc1Cl)c1ccc(Cl)cc1Cl` (centres unmarked) [Beispiel 13, 1-(2-Chlorphenyl)-1-(2,4-dichlorphenyl)-2-(1.2.4-triazol-1-yl)-äthan-1-ol] yielded an LD50 of more than 1000 mg/kg. In addition, the MIC in series [2] came to 1 mg/L (≈ 2.71 µM).
As for `OC(Cn1cncn1)(c1ccccc1Cl)c1ccc(Cl)cc1Cl` (centres unmarked) [Beispiel 14, 1-(2-Chlorphenyl)-1-(2,4-dichlorphenyl)-2-(1.2.4-triazol-1-yl)-äthan-1-ol-hydrochlorid], in series [1], the “LD50 (Maus) p.o.” value is given as more than 1000 mg/kg. In series [2], this compound gave an MHKMyzelph. of 1 µg/mL.
`OC(Cn1cncn1)(c1cccc(Cl)c1)c1ccc(Cl)cc1Cl` (centres unmarked) [Beispiel 15, 1-(3-Chlorphenyl)-1-(2,4-dichlorphenyl)-2-(1.2.4-triazol-1-yl)-äthan-1-ol] returned a 50% lethal dose (LD50) in series [1] of more than 1000 mg/kg. Besides, the MHKMyzelph. in series [2] is reported as <0,125 µg/ml.
Regarding `OC(Cn1cncn1)(c1cccc(Cl)c1)c1ccc(Cl)cc1Cl` (centres unmarked) [Beispiel 16, 1-(3-Chlorphenyl)-1-(2,4-dichlorphenyl)-2-(1.2.4-triazol-1-yl)-äthan-1-ol-hydrochlorid], the “LD50 (Maus) p.o.” value in series [1] is listed as more than 1000 mg/kg. The compound also returned an MHKMyzelph. in series [2] of 1 µg/mL.
